# What was measured:
# Assay type in all cases: biochemical
# [1] = test system: α-isomaltosyl-transferring enzyme from Bacillus globisporus C11; assay: Specificity to transferring acceptor; conditions: panose as saccharide donor, 10 units/g substrate, 3.2% (w/v), 30° C., pH 6.0, 24 hours
# Summary of the method: (§1)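 Each candidate acceptor was mixed with panose donor at equal concentration, then given 10 units/g substrate of enzyme (purified, or partially purified for strain A19) at 3.2% (w/v) total saccharide. Reactions ran 24 hours at 30° C., pH 6.0, and were scored for presence or absence of transfer product.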
# [2] = test system: α-isomaltosyl-transferring enzyme from Bacillus globisporus N75; assay: Specificity to transferring acceptor; conditions: panose as saccharide donor, 10 units/g substrate, 3.2% (w/v), 30° C., pH 6.0, 24 hours
# Summary of the method: as §1
# [3] = test system: α-isomaltosyl-transferring enzyme from Bacillus globisporus C9; assay: Specificity to transferring acceptor; conditions: panose as saccharide donor, 10 units/g substrate, 3.2% (w/v), 30° C., pH 6.0, 24 hours
# Summary of the method: as §1
# [4] = test system: α-isomaltosyl-transferring enzyme from Arthrobacter ramosus S1; assay: Specificity to transferring acceptor; conditions: panose as saccharide donor, 10 units/g substrate, 3.2% (w/v), 30° C., pH 6.0, 24 hours
# Summary of the method: as §1
# [5] = test system: α-isomaltosyl-transferring enzyme from Arthrobacter globiformis A19; assay: Specificity to transferring acceptor; conditions: partially purified enzyme, panose as saccharide donor, 10 units/g substrate, 3.2% (w/v), 30° C., pH 6.0, 24 hours
# Summary of the method: as §1
# [6] = test system: α-isomaltosyl-transferring enzyme from Bacillus globisporus C11; assay: Action on saccharides (substrates, TLC); design: key: −: there was found no substrate change before and after the enzymatic reaction; +: there were found both the reduction of substrate and the formation of cyclotetrasaccharide after the enzymatic reaction; conditions: 2 units/g substrate, 2% (w/v) substrate, 30° C., pH 6.0, 24 hours
# Summary of the method: (§2)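 TLC detection used sulfuric acid-methanol coloration for all sugars and diphenylamine-aniline for reducing ones, after development in n-butanol/pyridine/water (6:4:1). Reactions contained 2% (w/v) substrate and 2 units/g substrate of purified enzyme, incubated 24 hours at 30° C., pH 6.0.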
# [7] = test system: α-isomaltosyl-transferring enzyme from Bacillus globisporus N75; assay: Action on saccharides (substrates, TLC); design: key: −: there was found no substrate change before and after the enzymatic reaction; +: there were found both the reduction of substrate and the formation of cyclotetrasaccharide after the enzymatic reaction; conditions: 2 units/g substrate, 2% (w/v) substrate, 30° C., pH 6.0, 24 hours
# Summary of the method: as §2
# [8] = test system: α-isomaltosyl-transferring enzyme from Bacillus globisporus C9; assay: Action on saccharides (substrates, TLC); design: key: −: there was found no substrate change before and after the enzymatic reaction; +: there were found both the reduction of substrate and the formation of cyclotetrasaccharide after the enzymatic reaction; conditions: 2 units/g substrate, 2% (w/v) substrate, 30° C., pH 6.0, 24 hours
# Summary of the method: as §2
# [9] = test system: α-isomaltosyl-transferring enzyme from Arthrobacter ramosus S1; assay: Action on saccharides (substrates, TLC); design: key: −: there was found no substrate change before and after the enzymatic reaction; +: there were found both the reduction of substrate and the formation of cyclotetrasaccharide after the enzymatic reaction; conditions: 2 units/g substrate, 2% (w/v) substrate, 30° C., pH 6.0, 24 hours
# Summary of the method: as §2
# [10] = test system: α-isomaltosyl-transferring enzyme from Arthrobacter globiformis A19; assay: Action on saccharides (substrates, TLC); design: key: −: there was found no substrate change before and after the enzymatic reaction; +: there were found both the reduction of substrate and the formation of cyclotetrasaccharide after the enzymatic reaction; conditions: partially purified enzyme, 2 units/g substrate, 2% (w/v) substrate, 30° C., pH 6.0, 24 hours
# Summary of the method: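 Substrates 2% (w/v), enzyme 2 units/g substrate, pH 6.0, 30° C., 24 h. Read-out: silica TLC, n-butanol:pyridine:water 6:4:1; sulfuric acid-methanol (total sugar) and diphenylamine-aniline (reducing sugar) staining, pre- vs post-reaction.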
"Enzymatic action for forming cyclotetrasaccharide, Enzyme of Strain C11 [6]","Enzymatic action for forming cyclotetrasaccharide, Enzyme of Strain N75 [7]","Enzymatic action for forming cyclotetrasaccharide, Enzyme of Strain C9 [8]","Enzymatic action for forming cyclotetrasaccharide, Enzyme of Strain S1 [9]","Enzymatic action for forming cyclotetrasaccharide, Enzyme of Strain A19 [10]",Compound,"Product of transferring reaction, Enzyme of Strain C11 [1]","Product of transferring reaction, Enzyme of Strain N75 [2]","Product of transferring reaction, Enzyme of Strain C9 [3]","Product of transferring reaction, Enzyme of Strain S1 [4]","Product of transferring reaction, Enzyme of Stain A19 [5]"
−,−,−,−,−,"OC[C@H]1O[C@H](O[C@H]2O[C@H](CO)[C@@H](O)[C@H](O)[C@H]2O)[C@H](O)[C@@H](O)[C@@H]1O [α,α-Trehalose, α,α-trehalose]",+ (a saccharide-transferred product was formed in an amount of over one percent but below 10% to the total sugars),+ (a saccharide-transferred product was formed in an amount of over one percent but below 10% to the total sugars),+ (a saccharide-transferred product was formed in an amount of over one percent but below 10% to the total sugars),+ (a saccharide-transferred product was formed in an amount of over one percent but below 10% to the total sugars),+ (a saccharide-transferred product was formed in an amount of over one percent but below 10% to the total sugars)
−,−,−,−,−,"OC[C@H]1O[C@H](O[C@H]2[C@H](O)[C@@H](O)[C@@H](OC[C@H]3OC(O)[C@H](O)[C@@H](O)[C@@H]3O)O[C@@H]2CO)[C@H](O)[C@@H](O)[C@@H]1O (some centres unmarked) [Isopanose, isopanose]",+ (a saccharide-transferred product was formed in an amount of over one percent but below 10% to the total sugars),+ (a saccharide-transferred product was formed in an amount of over one percent but below 10% to the total sugars),+ (a saccharide-transferred product was formed in an amount of over one percent but below 10% to the total sugars),+ (a saccharide-transferred product was formed in an amount of over one percent but below 10% to the total sugars),+ (a saccharide-transferred product was formed in an amount of over one percent but below 10% to the total sugars)

# The remaining lines, values behind:
Compound,"Enzymatic action for forming cyclotetrasaccharide, Enzyme of Strain C11 [6]","Enzymatic action for forming cyclotetrasaccharide, Enzyme of Strain N75 [7]","Enzymatic action for forming cyclotetrasaccharide, Enzyme of Strain C9 [8]","Enzymatic action for forming cyclotetrasaccharide, Enzyme of Strain S1 [9]","Enzymatic action for forming cyclotetrasaccharide, Enzyme of Strain A19 [10]","Product of transferring reaction, Enzyme of Strain C11 [1]","Product of transferring reaction, Enzyme of Strain N75 [2]","Product of transferring reaction, Enzyme of Strain C9 [3]","Product of transferring reaction, Enzyme of Strain S1 [4]","Product of transferring reaction, Enzyme of Stain A19 [5]"
"OC[C@H]1O[C@@](CO)(O[C@H]2O[C@H](CO)[C@@H](O)[C@H](O)[C@H]2O)[C@@H](O)[C@@H]1O [Sucrose, sucrose]",−,−,−,−,−,+ (a saccharide-transferred product was formed in an amount of over one percent but below 10% to the total sugars),+ (a saccharide-transferred product was formed in an amount of over one percent but below 10% to the total sugars),+ (a saccharide-transferred product was formed in an amount of over one percent but below 10% to the total sugars),+ (a saccharide-transferred product was formed in an amount of over one percent but below 10% to the total sugars),+ (a saccharide-transferred product was formed in an amount of over one percent but below 10% to the total sugars)
"O=C[C@H](O)[C@@H](O)[C@H](O[C@@H]1O[C@H](CO)[C@@H](O)[C@H](O)[C@H]1O)[C@H](O)CO [Cellobiose, cellobiose]",−,−,−,−,−,+ (a saccharide-transferred product was formed in an amount of over one percent but below 10% to the total sugars),+ (a saccharide-transferred product was formed in an amount of over one percent but below 10% to the total sugars),+ (a saccharide-transferred product was formed in an amount of over one percent but below 10% to the total sugars),+ (a saccharide-transferred product was formed in an amount of over one percent but below 10% to the total sugars),+ (a saccharide-transferred product was formed in an amount of over one percent but below 10% to the total sugars)
"OC[C@@H](O)[C@@H](O[C@H]1O[C@H](CO)[C@@H](O[C@H]2O[C@H](CO)[C@@H](O)[C@H](O)[C@H]2O)[C@H](O)[C@H]1O)[C@H](O)[C@@H](O)CO [Maltotriitol, maltotriitol]",−,−,−,−,−,+ (a saccharide-transferred product was formed in an amount of over one percent but below 10% to the total sugars),+ (a saccharide-transferred product was formed in an amount of over one percent but below 10% to the total sugars),+ (a saccharide-transferred product was formed in an amount of over one percent but below 10% to the total sugars),+ (a saccharide-transferred product was formed in an amount of over one percent but below 10% to the total sugars),+ (a saccharide-transferred product was formed in an amount of over one percent but below 10% to the total sugars)
